Data published in US6737383B1, “Herbicidal oxadiazolidines” (priority 1999, dated 2004).

What was measured:
[1] = tested on: soybean; assay: Test B pre/postemergence soybean; format: in vivo, Glycine max
In short: (§1)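 Response is a visual 0-to-10 score relative to untreated plants, where 0 means no effect and 10 means complete control, taken twelve to sixteen days after application. Treatments went onto soil at planting and onto foliage of 1- to 4-leaf plants, using a surfactant-containing non-phytotoxic solvent.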

[2] = tested on: rape; assay: Test B pre/postemergence rape; format: in vivo, Brassica napus
In short: as §1

[3] = tested on: pigweed; assay: Test B pre/postemergence pigweed; format: in vivo, Amaranthus retroflexus
In short: as §1

[4] = tested on: crabgrass; assay: Test B pre/postemergence crabgrass; format: in vivo, Digitaria sanguinalis
In short: as §1

[5] = tested on: duck salad; assay: Test B flood test duck salad; format: in vivo, Heteranthera limosa
In short: (§2)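 Read-out is a visual response score from 0 (no effect) to 10 (complete control), assigned by comparison with untreated controls. Treatment was applied at the 2-leaf stage, and plants stayed in the greenhouse for twelve to sixteen days before scoring.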

[6] = tested on: velvetleaf; assay: Test B pre/postemergence velvetleaf; format: in vivo, Abutilon theophrasti
In short: as §1

[7] = tested on: blackgrass; assay: Test B pre/postemergence blackgrass; format: in vivo, Alopecurus myosuroides
In short: as §1

[8] = tested on: purple nutsedge; assay: Test B pre/postemergence purple nutsedge; format: in vivo, Cyperus rotundus
In short: as §1

[9] = tested on: surinam grass; assay: Test B pre/postemergence surinam grass; format: in vivo, Brachiaria decumbens
In short: as §1

[10] = tested on: morningglory; assay: Test B pre/postemergence morningglory; format: in vivo, Ipomoea hederacea
In short: as §1

[11] = tested on: corn; assay: Test B pre/postemergence corn; format: in vivo, Zea mays
In short: as §1

[12] = tested on: rice; assay: Test B flood test rice; format: in vivo, Oryza sativa
In short: as §2

[13] = tested on: giant foxtail; assay: Test B pre/postemergence giant foxtail; format: in vivo, Setaria faberii
In short: as §1

[14] = tested on: sugar beet; assay: Test B pre/postemergence sugar beet; format: in vivo, Beta vulgaris
In short: as §1

[15] = tested on: wild oat; assay: Test B pre/postemergence wild oat; format: in vivo, Avena fatua
In short: as §1

[16] = tested on: cocklebur; assay: Test B pre/postemergence cocklebur; format: in vivo, Xanthium strumarium
In short: as §1

[17] = Postemergence, Rate 125 g/ha, scale of 0 to 10 where 0 is no effect and 10 is complete control
[18] = Preemergence, Rate 62 g/ha, scale of 0 to 10 where 0 is no effect and 10 is complete control
[19] = Preemergence, Rate 125 g/ha, scale of 0 to 10 where 0 is no effect and 10 is complete control
[20] = Preemergence, Rate 250 g/ha, scale 0 to 10 (0 no effect, 10 complete control)
[21] = Preemergence, Rate 500 g/ha, scale of 0 to 10 where 0 is no effect and 10 is complete control
[22] = Postemergence, Rate 62 g/ha, scale 0 to 10, 0 is no effect, 10 is complete control
[23] = Rate 500 g/ha, Postemergence, scale 0 to 10, 0 is no effect, 10 is complete control
[24] = Postemergence, Rate 250 g/ha, scale of 0 to 10, 0 is no effect, 10 is complete control
[25] = Rate 62 g/ha, flood test species, Pre-emergence, visual evaluation after twelve to sixteen days
[26] = Rate 125 g/ha, under heading Pre-emergence, flood test species, visual evaluation after twelve to sixteen days
[27] = Rate 250 g/ha, Pre-emergence (flood test species), scale 0 to 10, 0 is no effect, 10 is complete control
[28] = Rate 500 g/ha, Pre-emergence section of Table B, 0 to 10 scale (0 no effect, 10 complete control)

## CC(C)N(C(=O)n1oc(=O)n(C(C)C)c1=O)c1ccncc1 [Compound 663]
[1]; [17]
  Soybean plant response rating: 0
[1]; [18]
  Soybean plant response rating: 0
[1]; [19]
  Soybean plant response rating: 0
[1]; [20]
  Plant response rating, Soybean: 0
[1]; [21]
  Plant response rating, Soybean: 2
[2]; [22]
  Plant response rating, Rape: 0
[2]; [17]
  Rape plant response rating: 0
[2]; [18]
  Rape plant response rating: 0
[2]; [19]
  Rape plant response rating: 0
[2]; [20]
  Plant response rating, Rape: 0
[2]; [21]
  Plant response rating, Rape: 4
[2]; [23]
  Rape plant response rating: 0
[3]; [22]
  Plant response rating, Redroot pigweed: 0
[3]; [17]
  Redroot pigweed plant response rating: 0
[3]; [18]
  Redroot pigweed plant response rating: 0
[3]; [19]
  Redroot pigweed plant response rating: 0
[3]; [20]
  Plant response rating, Redroot pigweed: 7
[3]; [21]
  Plant response rating, Redroot pigweed: 7
[3]; [23]
  Redroot pigweed plant response rating: 0
[4]; [22]
  Plant response rating, Crabgrass: 0
[4]; [17]
  Crabgrass plant response rating: 0
[4]; [24]
  Crabgrass plant response rating: 0
[4]; [18]
  Crabgrass plant response rating: 0
[4]; [19]
  Crabgrass plant response rating: 0
[4]; [20]
  Plant response rating, Crabgrass: 0
[4]; [21]
  Plant response rating, Crabgrass: 0
[4]; [23]
  Crabgrass plant response rating: 4
[5]; [25]
  Plant response rating, Ducksalad (0 to 10 scale, 0 is no effect, 10 is complete control): 0
[5]; [26]
  Ducksalad plant response rating (0 to 10 scale, 0 is no effect, 10 is complete control): 0
[5]; [27]
  Ducksalad plant response rating: 0
[5]; [28]
  Ducksalad plant response rating: 0
[6]; [22]
  Plant response rating, Velvetleaf: 0
[6]; [17]
  Velvetleaf plant response rating: 0
[6]; [18]
  Velvetleaf plant response rating: 0
[6]; [19]
  Velvetleaf plant response rating: 0
[6]; [20]
  Plant response rating, Velvetleaf: 0
[6]; [21]
  Plant response rating, Velvetleaf: 3
[6]; [23]
  Velvetleaf plant response rating: 2
[7]; [22]
  Plant response rating, Blackgrass: 0
[7]; [17]
  Blackgrass plant response rating: 0
[7]; [24]
  Blackgrass plant response rating: 0
[7]; [18]
  Blackgrass plant response rating: 0
[7]; [19]
  Blackgrass plant response rating: 0
[7]; [20]
  Plant response rating, Blackgrass: 0
[7]; [21]
  Plant response rating, Blackgrass: 0
[7]; [23]
  Blackgrass plant response rating: 2
[8]; [22]
  Plant response rating, Nutsedge: 0
[8]; [17]
  Nutsedge plant response rating: 0
[8]; [18]
  Nutsedge plant response rating: 0
[8]; [19]
  Nutsedge plant response rating: 0
[8]; [20]
  Plant response rating, Nutsedge: 0
[8]; [21]
  Plant response rating, Nutsedge: 0
[8]; [23]
  Nutsedge plant response rating: 0
[9]; [22]
  Plant response rating, B. signalgrass: 0
[9]; [17]
  Plant response rating, B. signalgrass: 0
[9]; [24]
  B. signalgrass plant response rating: 0
[9]; [18]
  B. signalgrass plant response rating: 0
[9]; [19]
  B. signalgrass plant response rating: 0
[9]; [20]
  Plant response rating, B. signalgrass: 0
[9]; [21]
  Plant response rating, B. signalgrass: 0
[9]; [23]
  B. signalgrass plant response rating: 0
[10]; [22]
  Plant response rating, Morningglory: 0
[10]; [17]
  Morningglory plant response rating: 0
[10]; [24]
  Morningglory plant response rating: 4
[10]; [18]
  Morningglory plant response rating: 0
[10]; [19]
  Morningglory plant response rating: 0
[10]; [20]
  Plant response rating, Morningglory: 0
[10]; [21]
  Plant response rating, Morningglory: 7
[10]; [23]
  Morningglory plant response rating: 4
[11]; [22]
  Plant response rating, Corn: 0
[11]; [17]
  Corn plant response rating: 0
[11]; [24]
  Corn plant response rating: 0
[11]; [18]
  Corn plant response rating: 0
[11]; [19]
  Corn plant response rating: 0
[11]; [20]
  Plant response rating, Corn: 0
[11]; [21]
  Plant response rating, Corn: 0
[11]; [23]
  Corn plant response rating: 0
[12]; [25]
  Plant response rating, Rice (0 to 10 scale, 0 is no effect, 10 is complete control): 0
[12]; [26]
  Rice plant response rating (0 to 10 scale, 0 is no effect, 10 is complete control): 0
[12]; [27]
  Rice plant response rating: 0
[12]; [28]
  Rice plant response rating: 0
[13]; [22]
  Plant response rating, Giant foxtail: 0
[13]; [17]
  Giant foxtail plant response rating: 0
[13]; [24]
  Giant foxtail plant response rating: 0
[13]; [18]
  Giant foxtail plant response rating: 0
[13]; [19]
  Giant foxtail plant response rating: 3
[13]; [20]
  Plant response rating, Giant foxtail: 5
[13]; [21]
  Plant response rating, Giant foxtail: 9
[13]; [23]
  Giant foxtail plant response rating: 4
[14]; [22]
  Plant response rating, Sugarbeets: 0
[14]; [17]
  Sugarbeets plant response rating: 0
[14]; [18]
  Sugarbeets plant response rating: 0
[14]; [19]
  Sugarbeets plant response rating: 0
[14]; [20]
  Plant response rating, Sugarbeets: 0
[14]; [21]
  Plant response rating, Sugarbeets: 0
[14]; [23]
  Sugarbeets plant response rating: 4
[15]; [22]
  Plant response rating, Wild oats: 0
[15]; [17]
  Wild oats plant response rating: 0
[15]; [18]
  Wild oats plant response rating: 0
[15]; [19]
  Wild oats plant response rating: 0
[15]; [20]
  Plant response rating, Wild oats: 0
[15]; [21]
  Plant response rating, Wild oats: 0
[15]; [23]
  Wild oats plant response rating: 0
[16]; [22]
  Plant response rating, Cocklebur: 0
[16]; [17]
  Cocklebur plant response rating: 0
[16]; [24]
  Cocklebur plant response rating: 0
[16]; [18]
  Cocklebur plant response rating: 0
[16]; [19]
  Cocklebur plant response rating: 0
[16]; [20]
  Plant response rating, Cocklebur: 0
[16]; [21]
  Plant response rating, Cocklebur: 0
[16]; [23]
  Cocklebur plant response rating: 2
